Experimental data reported in ChEMBL document CHEMBL3885861, “Open TG-GATES”.

Species on record: Rattus norvegicus
Test: Open TG-GATES - Regimen: Daily Repeat
Type: toxicity, organism-based, Sprague-Dawley
Parameters: regimen Daily Repeat, gender Male, age 6 weeks
Conditions: in vivo, po, 6 mg/kg, route gavage, dose level Low; for APTT / Bas / Eos / Fbg / Hb / Ht / Lym / MCH / MCHC / MCV / Mono / Neu / PT / Plat / RBC / Ret / WBC: tissue Blood; for KIDNEY_L / KIDNEY_R / KIDNEY_TOTAL: tissue Kidney; for LIVER: tissue Liver; for A/G / ALP / ALT / AST / BUN / CRE / Ca / Cl / DBIL / GLC / IP / K / LDH / Na / PL / RALB / TBIL / TC / TG / TP / gamma-GTP: tissue Plasma

CC(C)NNC(=O)c1ccncc1 [IPRONIAZID] showed a TERMINAL_BW (72 h, time 3 day) of 205.6 g, an APTT (72 h, time 3 day) of 20.8 s and a Bas (72 h, time 3 day) of 0%. It also gave an Eos (72 h, time 3 day) of 1%, a Fbg (72 h, time 3 day) of 309.2 mg/dL and a Hb (72 h, time 3 day) of 13.5 g/dL. It also gave a Ht (72 h, time 3 day) of 39.1%, a Lym (72 h, time 3 day) of 78.4% and an MCH (72 h, time 3 day) of 21.3 pg. The MCHC (72 h, time 3 day) was 34.4%, the MCV (72 h, time 3 day) was 61.9 fL and the Mono (72 h, time 3 day) was 2.2%. For the same compound, the Neu (72 h, time 3 day) was 17.2%, the PT (72 h, time 3 day) was 16.2 s and the Plat (72 h, time 3 day) was 123.8 x10_4/uL. For the same compound, the RBC (72 h, time 3 day) was 632.6 x10_4/ul, the Ret (72 h, time 3 day) was 6.8% and the WBC (72 h, time 3 day) was 92 x10_2/uL. The KIDNEY_L (72 h, time 3 day) was 0.9 g, the KIDNEY_R (72 h, time 3 day) was 0.9 g and the KIDNEY_TOTAL (72 h, time 3 day) was 1.8 g. For the same compound, the LIVER (72 h, time 3 day) was 9.6 g, the A/G (72 h, time 3 day) was 1.4 and the ALP (72 h, time 3 day) was 1667 IU/L. It also gave an ALT (72 h, time 3 day) of 37.4 IU/L, an AST (72 h, time 3 day) of 73.8 IU/L and a BUN (72 h, time 3 day) of 17.2 mg/dL. The CRE (72 h, time 3 day) was 0.2 mg/dL, the Ca (72 h, time 3 day) was 10.6 mg/dL and the Cl (72 h, time 3 day) was 108.8 meq/L. The DBIL (72 h, time 3 day) was 0 mg/dL, the GLC (72 h, time 3 day) was 187.2 mg/dL and the IP (72 h, time 3 day) was 7.2 mg/dL. For the same compound, the K (72 h, time 3 day) was 4.3 meq/L, the LDH (72 h, time 3 day) was 266.6 IU/L and the Na (72 h, time 3 day) was 143.2 meq/L. For the same compound, the PL (72 h, time 3 day) was 146.2 mg/dL, the RALB (72 h, time 3 day) was 3.2 g/dL and the TBIL (72 h, time 3 day) was 0.002 mg/dL. The TC (72 h, time 3 day) was 77.2 mg/dL, the TG (72 h, time 3 day) was 102.2 mg/dL and the TP (72 h, time 3 day) was 5.6 g/dL. The gamma-GTP (72 h, time 3 day) was 1.2 IU/L, the TERMINAL_BW ([…], time 7 day) was 237.7 g and the TERMINAL_BW ([…], time 14 day) was 274.7 g. It also gave a TERMINAL_BW ([…], time 28 day) of 367.4 g, an APTT ([…], time 7 day) of 21.4 s and a Bas ([…], time 7 day) of 0%. For the same compound, the Eos ([…], time 7 day) was 0.8%, the Fbg ([…], time 7 day) was 315.6 mg/dL and the Hb ([…], time 7 day) was 13.4 g/dL. The Ht ([…], time 7 day) was 37.5%, the Lym ([…], time 7 day) was 83.6% and the MCH ([…], time 7 day) was 21.3 pg. The MCHC ([…], time 7 day) was 35.6%, the MCV ([…], time 7 day) was 59.7 fL and the Mono ([…], time 7 day) was 2.2%. For the same compound, the Neu ([…], time 7 day) was 12.6%, the PT ([…], time 7 day) was 15.4 s and the Plat ([…], time 7 day) was 114 x10_4/uL. It also gave an RBC ([…], time 7 day) of 628.6 x10_4/ul, a Ret ([…], time 7 day) of 5.1% and a WBC ([…], time 7 day) of 110.8 x10_2/uL. The APTT ([…], time 14 day) was 22.2 s, the Bas ([…], time 14 day) was 0% and the Eos ([…], time 14 day) was 1%. It also gave a Fbg ([…], time 14 day) of 289.4 mg/dL, a Hb ([…], time 14 day) of 13.8 g/dL and a Ht ([…], time 14 day) of 40%. The Lym ([…], time 14 day) was 81.6%, the MCH ([…], time 14 day) was 20.1 pg and the MCHC ([…], time 14 day) was 34.6%. For the same compound, the MCV ([…], time 14 day) was 58 fL, the Mono ([…], time 14 day) was 2.2% and the Neu ([…], time 14 day) was 14.8%. For the same compound, the PT ([…], time 14 day) was 15.7 s, the Plat ([…], time 14 day) was 118.3 x10_4/uL and the RBC ([…], time 14 day) was 690.8 x10_4/ul. It also gave a Ret ([…], time 14 day) of 4.7%, a WBC ([…], time 14 day) of 112.4 x10_2/uL and an APTT ([…], time 28 day) of 22.6 s. The Bas ([…], time 28 day) was 0%, the Eos ([…], time 28 day) was 1% and the Fbg ([…], time 28 day) was 317 mg/dL. It also gave a Hb ([…], time 28 day) of 13.7 g/dL, a Ht ([…], time 28 day) of 39% and a Lym ([…], time 28 day) of 78.8%. It also gave an MCH ([…], time 28 day) of 20 pg, an MCHC ([…], time 28 day) of 35.1% and an MCV ([…], time 28 day) of 56.8 fL. It also gave a Mono ([…], time 28 day) of 2%, a Neu ([…], time 28 day) of 17% and a PT ([…], time 28 day) of 15.8 s. For the same compound, the Plat ([…], time 28 day) was 111.4 x10_4/uL, the RBC ([…], time 28 day) was 687.6 x10_4/ul and the Ret ([…], time 28 day) was 4.7%. It also gave a WBC ([…], time 28 day) of 109.2 x10_2/uL, a KIDNEY_L ([…], time 7 day) of 1 g and a KIDNEY_R ([…], time 7 day) of 1 g. For the same compound, the KIDNEY_TOTAL ([…], time 7 day) was 2.1 g, the KIDNEY_L ([…], time 14 day) was 1.1 g and the KIDNEY_R ([…], time 14 day) was 1.1 g. The KIDNEY_TOTAL ([…], time 14 day) was 2.2 g, the KIDNEY_L ([…], time 28 day) was 1.3 g and the KIDNEY_R ([…], time 28 day) was 1.3 g. The KIDNEY_TOTAL ([…], time 28 day) was 2.6 g, the LIVER ([…], time 7 day) was 10.7 g and the LIVER ([…], time 14 day) was 11.9 g. The LIVER ([…], time 28 day) was 14.7 g, the A/G ([…], time 7 day) was 1.2 and the ALP ([…], time 7 day) was 1548 IU/L. The ALT ([…], time 7 day) was 39.8 IU/L, the AST ([…], time 7 day) was 72.8 IU/L and the BUN ([…], time 7 day) was 18 mg/dL. For the same compound, the CRE ([…], time 7 day) was 0.2 mg/dL, the Ca ([…], time 7 day) was 10.6 mg/dL and the Cl ([…], time 7 day) was 107.6 meq/L. The DBIL ([…], time 7 day) was 0 mg/dL, the GLC ([…], time 7 day) was 189.4 mg/dL and the IP ([…], time 7 day) was 6.5 mg/dL. It also gave a K ([…], time 7 day) of 4.3 meq/L, an LDH ([…], time 7 day) of 234.6 IU/L and a Na ([…], time 7 day) of 141 meq/L. The PL ([…], time 7 day) was 153.2 mg/dL, the RALB ([…], time 7 day) was 3.1 g/dL and the TBIL ([…], time 7 day) was 0.002 mg/dL. For the same compound, the TC ([…], time 7 day) was 76.8 mg/dL, the TG ([…], time 7 day) was 125.8 mg/dL and the TP ([…], time 7 day) was 5.6 g/dL. For the same compound, the gamma-GTP ([…], time 7 day) was 1.4 IU/L, the A/G ([…], time 14 day) was 1.1 and the ALP ([…], time 14 day) was 1195.8 IU/L. It also gave an ALT ([…], time 14 day) of 41 IU/L, an AST ([…], time 14 day) of 69 IU/L and a BUN ([…], time 14 day) of 18 mg/dL. For the same compound, the CRE ([…], time 14 day) was 0.2 mg/dL, the Ca ([…], time 14 day) was 10.5 mg/dL and the Cl ([…], time 14 day) was 107.4 meq/L. For the same compound, the DBIL ([…], time 14 day) was 0 mg/dL, the GLC ([…], time 14 day) was 180 mg/dL and the IP ([…], time 14 day) was 6.5 mg/dL. It also gave a K ([…], time 14 day) of 4.3 meq/L, an LDH ([…], time 14 day) of 160.8 IU/L and a Na ([…], time 14 day) of 141.2 meq/L. The PL ([…], time 14 day) was 161 mg/dL, the RALB ([…], time 14 day) was 3 g/dL and the TBIL ([…], time 14 day) was 0.004 mg/dL. The TC ([…], time 14 day) was 80.6 mg/dL, the TG ([…], time 14 day) was 148 mg/dL and the TP ([…], time 14 day) was 5.7 g/dL. It also gave a gamma-GTP ([…], time 14 day) of 2.2 IU/L, an A/G ([…], time 28 day) of 1.1 and an ALP ([…], time 28 day) of 1033.6 IU/L. The ALT ([…], time 28 day) was 42.6 IU/L, the AST ([…], time 28 day) was 71.8 IU/L and the BUN ([…], time 28 day) was 18 mg/dL. The CRE ([…], time 28 day) was 0.2 mg/dL, the Ca ([…], time 28 day) was 10.6 mg/dL and the Cl ([…], time 28 day) was 106.6 meq/L. The DBIL ([…], time 28 day) was 0 mg/dL, the GLC ([…], time 28 day) was 191 mg/dL and the IP ([…], time 28 day) was 6.2 mg/dL. The K ([…], time 28 day) was 4.3 meq/L, the LDH ([…], time 28 day) was 167.4 IU/L and the Na ([…], time 28 day) was 142 meq/L. The PL ([…], time 28 day) was 151.6 mg/dL, the RALB ([…], time 28 day) was 3.2 g/dL and the TBIL ([…], time 28 day) was 0.02 mg/dL. For the same compound, the TC ([…], time 28 day) was 77.6 mg/dL, the TG ([…], time 28 day) was 135.6 mg/dL and the TP ([…], time 28 day) was 6 g/dL. The gamma-GTP ([…], time 28 day) was 2 IU/L.
